Measurements from patent US20190375708A1 (VenatoRx Pharmaceuticals, Inc., priority 2018, published 2019).

Assays:
[1] = tested on: HBV replication in HepAD38 cells; experiment: Anti-HBV replication assay in HepAD38 cells (QPCR of extracellular HBV DNA); type: cell-based, HBV (genotype D, serotype ayw); details: Hepatitis B virus, 168 h, 7 days incubation, extracellular HBV DNA by QPCR, read-out: Anti-HBV EC50
In short: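 Compounds (1 log10 serial dilutions, […]) were left 7 days on tetracycline-free HepAD38 cultures, a HepG2 line with tet-controlled HBV genotype D. EC50 came from 4-parameter regression of percent inhibition versus vehicle, using supernatant HBV DNA copies/mL measured by QPCR.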

[2] = In vitro cytotoxicity assay (MTT cell viability) in HepG2 cells; type: cell-based, human; details: human
In short: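 CC50 values reflect loss of HepG2 viability after a 7-day exposure at 37 °C, 5% CO2. After 3-4 h with MTT, solubilized formazan was quantified at 492 nm relative to vehicle wells.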

Structure (SMILES)	EC50 [1] [nM]	CC50 at 7 days [2] [nM]
Cc1cc(NC(=O)c2cc(C(=O)C(=O)NC[C@@H](O)CO)n3c2CCCC3)ccc1F [Example 415, (R)-3-(2-((2,3-dihydroxypropyl)amino)-2-oxoacetyl)-N-(4-fluoro-3-methylphenyl)-5,6,7,8-tetrahydroindolizine-1-carboxamide]	> 1000	> 30000
CNC(=O)C1(NC(=O)C(=O)c2c(C)c(C(=O)Nc3ccc(F)c(C)c3)c(C)n2C)CC(F)(F)C1 [Example 104, 5-(2-((3,3-difluoro-1-(methylcarbamoyl)cyclobutyl)amino)-2-oxoacetyl)-N-(4-fluoro-3-methylphenyl)-1,2,4-trimethyl-1H-pyrrole-3-carboxamide]	< 50	> 30000
Cc1cc(NC(=O)c2c(C)c(C(=O)C(=O)NC(C)(C)C(C)(C)O)n(C)c2C)ccc1F [Example 617, N-(4-fluoro-3-methylphenyl)-5-(2-((3-hydroxy-2,3-dimethylbutan-2-yl)amino)-2-oxoacetyl)-1,2,4-trimethyl-1H-pyrrole-3-carboxamide]	< 50	> 30000
COc1c(C(=O)Nc2ccc(F)c(F)c2)c(C)n(C)c1C(=O)C(=O)NC1(C(F)(F)F)CCC1 [Example 378, N-(3,4-difluorophenyl)-4-methoxy-1,2-dimethyl-5-(2-oxo-2-((1-(trifluoromethyl)cyclobutyl)amino)acetyl)-1H-pyrrole-3-carboxamide]	< 50	> 30000
Cc1cc(NC(=O)c2c(C)c(C(=O)C(=O)N[C@H](C(=O)O)C3CCCCC3)n(C)c2C)ccc1F [Example 68, (S)-2-cyclohexyl-2-(2-(4-((4-fluoro-3-methylphenyl)carbamoyl)-1,3,5-trimethyl-1H-pyrrol-2-yl)-2-oxoacetamido)acetic acid]	> 1000	> 30000
Cc1cc(NC(=O)c2c(C)c(C(=O)C(=O)Nc3ccc(F)nc3)n(C)c2C)cnc1F [Example 340, N-(6-fluoro-5-methylpyridin-3-yl)-5-(2-((6-fluoropyridin-3-yl)amino)-2-oxoacetyl)-1,2,4-trimethyl-1H-pyrrole-3-carboxamide]	500 to 1000	> 30000
CNC(=O)[C@@H](NC(=O)C(=O)c1c(C)c(C(=O)Nc2ccc(F)c(C)c2)c(C)n1C)C1CCC1 [Example 124, (S)-5-(2-((1-cyclobutyl-2-(methylamino)-2-oxoethyl)amino)-2-oxoacetyl)-N-(4-fluoro-3-methylphenyl)-1,2,4-trimethyl-1H-pyrrole-3-carboxamide]	< 50	5000 to 30000
Cc1cc(NC(=O)c2c(C)c(C(=O)C(=O)N[C@@H](C(=O)O)[C@@H](C)O)n(C)c2C)ccc1F [Example 52, (2-(4-((4-fluoro-3-methylphenyl)carbamoyl)-1,3,5-trimethyl-1H-pyrrol-2-yl)-2-oxoacetyl)-D-allothreonine]	> 1000	> 30000
Cc1cc(NC(=O)c2c(C)c(C(=O)C(=O)NC(C)(C)C)n(CCF)c2C)ccc1F [Example 115, 5-(2-(tert-butylamino)-2-oxoacetyl)-N-(4-fluoro-3-methylphenyl)-1-(2-fluoroethyl)-2,4-dimethyl-1H-pyrrole-3-carboxamide]	< 50	> 30000
Cc1cc(NC(=O)c2c(C)c(C(=O)C(=O)NCC(O)c3ccsc3)n(C)c2C)ccc1F (stereo not drawn) [Example 648, N-(4-fluoro-3-methylphenyl)-5-(2-((2-hydroxy-22-(thiophen-3-yl)ethyl)amino)-2-oxoacetyl)-1,2,4-trimethyl-1H-pyrrole-3-carboxamide]	< 50	> 30000
Cc1c(C(=O)Nc2ccc(F)c(F)c2)c2n(c1C(=O)C(=O)Nc1ccc(B(O)O)cc1)CCCC2 [Example 738, (4-(2-(1-((3,4-difluorophenyl)carbamoyl)-2-methyl-5,6,7,8-tetrahdyroindolizin-3-yl)-2-oxoacetamido)phenyl)boronic acid]	50 to 499	> 30000
Cc1cc(NC(=O)c2c(C)c(C(=O)C(=O)Nc3nc(CO)cs3)n(C)c2C)ccc1F [Example 308, N-(4-fluoro-3-methylphenyl)-5-(2-((4-(hydroxymethyl)thiazol-2-yl)amino)-2-oxoacetyl)-1,2,4-trimethyl-1H-pyrrole-3-carboxamide]	500 to 1000	> 30000
Cc1cc(NC(=O)c2c(C)c(C(=O)C(=O)N[C@@H](C(=O)NCC(C)(C)O)C(C)(C)C)n(C)c2C)ccc1F [Example 87, (R)-N-(4-fluoro-3-methylphenyl)-5-(2-((1-((2-hydroxy-2-methylpropyl)amino)-3,3-dimethyl-1-oxobutan-2-yl)amino)-2-oxoacetyl)-1,2,4-trimethyl-1H-pyrrole-3-carboxamide]	< 50	> 30000
Cc1nnc(NC(=O)C(=O)c2c(C)c(C(=O)Nc3ccc(F)c(C)c3)c(C)n2C)o1 [Example 305, N-(4-fluoro-3-methylphenyl)-1,2,4-trimethyl-5-(2-((5-methyl-1,3,4-oxadiazol-2-yl)amino)-2-oxoacetyl)-1H-pyrrole-3-carboxamide]	> 1000	> 30000
Cc1c(C(=O)Nc2nccs2)c2n(c1C(=O)C(=O)NC1(CO)CCC1)CCCC2 [Example 751]	50 to 499	> 30000
Cc1cc(NC(=O)c2c(C)c(C(=O)C(=O)NCC(C)(C)O)n3c2CCCC3)cnc1F [Example 477, N-(6-fluoro-5-methylpyridin-3-yl)-3-(2-((2-hydroxy-2-methylpropyl)amino)-2-oxoacetyl)-2-methyl-5,6,7,8-tetrahydroindolizine-1-carboxamide]	> 1000	> 30000
Cc1c(C(=O)Nc2ccc(F)nc2)c(C)n(C)c1C(=O)C(=O)NC1C2CC3CC(C2)CC1C3 (stereo not drawn) [Example 91, 5-(2-(((1r,3r)-adamantan-2-yl)amino)-2-oxoacetyl)-N-(6-fluoropyridin-3-yl)-1,2,4-trimethyl-1H-pyrrole-3-carboxamide]	< 50	> 30000
Cc1cc(NC(=O)c2c(C)c(C(=O)C(=O)N[C@@H]3CCCC[C@H]3O)n(C)c2C)cnc1F [Example 162, N-(6-fluoro-5-methylpyridin-3-yl)-5-(2-(((1R,2R)-2-hydroxycyclohexyl)amino)-2-oxoacetyl)-1,2,4-trimethyl-1H-pyrrole-3-carboxamide]	50 to 499	> 30000
Cc1cc(NC(=O)c2c(Cl)c(C(=O)C(=O)NC3(CO)CCC3)n3c2CCCC3)ccc1F [Example 504, 2-chloro-N-(4-fluoro-3-methylphenyl)-3-(2-((1-(hydroxymethyl)cyclobutyl)amino)-2-oxoacetyl)-5,6,7,8-tetrahydroindolizine-1-carboxamide]	< 50	5000 to 30000
Cc1cc(NC(=O)c2c(C)c(C(=O)C(=O)Nc3ccc(F)c(F)c3)n(C)c2C)cnc1F [Example 341, 5-(2-((3,4-difluorophenyl)amino)-2-oxoacetyl)-N-(5-fluoro-5-methylpyridin-3-yl)-1,2,4-trimethyl-1H-pyrrole-3-carboxamide]	50 to 499	> 30000
Cc1cc(NC(=O)c2c(C)c(C(=O)C(=O)NC[C@@H](C)O)n(C)c2C)ccc1F [Example 220, (R)-N-(4-ffluoro-3-methylphenyl)-5-(2-((2-hydroxypropyl)amino)-2-oxoacetyl)-1,2,4-trimethyl-1H-pyrrole-3-carboxamide]	< 50	5000 to 30000
Cc1noc([C@H](C)NC(=O)C(=O)c2c(C)c(C(=O)Nc3cnc(F)c(C)c3)c3n2CCCC3)n1 [Example 471, (S)-N-(6-fluoro-5-methylpyridin-3-yl)-2-methyl-3-(2-((1-(3-methyl-1,2,4-oxadiazol-5-yl)ethyl)amino)-2-oxoacetyl)-5,6,7,8-tetrahydroindolizine-1-carboxamide]	500 to 1000	> 30000
Cc1c(C(=O)Nc2ccc(F)c(Cl)c2)c(C)n(C)c1C(=O)C(=O)N[C@]1(C)CC[C@@H](O)CC1 [Example 333, N-(3-chloro-4-fluorophenyl)-5-(2-(((1r,4r)-4-hydroxy-1-methylcyclohexyl)amino)-2-oxoacetyl)-1,2,4-trimethyl-1H-pyrrole-3-carboxamide]	< 50	> 30000
CCOC(=O)[C@@H](CO)NC(=O)C(=O)c1c(C)c(C(=O)Nc2ccc(F)c(C)c2)c(C)n1C [Example 26, ethyl (2-(4-((4-fluoro-3-methylphenyl)carbamoyl)-1,3,5-trimethyl-1H-pyrrol-2-yl)-2-oxoacetyl)-D-serinate]	< 50	> 30000
CC(=O)N1CCC(C)(NC(=O)C(=O)c2c(C)c(C(=O)Nc3ccc(F)c(C)c3)c(C)n2C)CC1 [Example 612, 5-(2-((1-acetyl-4-methylpiperidin-4-yl)amino)-2-oxoacetyl)-N-(4-fluoro-3-methylphenyl)-1,2,4-trimethyl-1H-pyrrole-3-carboxamide]	< 50	> 30000
Cc1cc(NC(=O)c2c(C)c(C(=O)C(=O)NC3COCC(O)C3)n(C)c2C)ccc1F (stereo not drawn) [Example 608, N-(4-fluoro-3-methylphenyl)-5-(2-((5-hydroxytetrahydro-2H-pyran-3-yl)amino)-2-oxoacetyl)-1,2,4-trimethyl-1H-pyrrole-3-carboxamide]	< 50	> 30000
Cc1cc(NC(=O)c2c(C)c(C(=O)C(=O)NCc3nnc(C(F)(F)F)[nH]3)n(C)c2C)ccc1F [Example 244, N-(4-fluoro-3-methylphenyl)-1,2,4-trimethyl-5-(2-oxo-2-(((t-(trifluoromethyl)-4H-1,2,4-triazol-3-yl)methyl)amino)acetyl)-1H-pyrrole-3-carboxamide]	50 to 499	5000 to 30000
